Measurements from patent US12110295B2, “WD40 repeat domain protein 5 (WDR5) degradation/disruption compounds and methods of use” (Icahn School of Medicine at Mount Sinai, priority 2018, dated 2024).
“Also recorded” adds a separate entry of the source.

How the values were obtained:
[1] = biological target: T1, WDR5 (Homo sapiens, UniProt P61964); settings: MV4;11 cells, summary of FIGS. 1-3
Experimental: MV4;11 cells were treated with DMSO or indicated compounds at 1 μM and 10 μM for 18 hours.
MV4;11 cells were treated with DMSO or indicated compounds at 0.1 μM, 0.5 μM, 1 μM, 5 μM, and 10 μM for 18 hours.
MV4;11 cells were treated with DMSO or indicated compounds at a fixed concentration of 0.5 μM for 1, 2, 4, 8, 16, or 24 hours.
MV4;11 cells were treated with DMSO or indicated compounds at 0.1 μM and 0.5 μM for 18 hours. […] MV4;11 cells were treated with DMSO or indicated compounds at 0.1 μM and 1.0 μM for 18 hours.
WDR5 degraders were dissolved in DMSO and DMSO with no degraders was used as the control. 1×10^6 MV4;11 cells or 1×10^5 MIAPACA2 or 2×10^5 Hela cells were seeded in 2 mL medium for each well in 24-well plates.
And cells were collected at indicated timepoints: 1 h, 2 h, 4 h, 8 h, 16 h, and 24 h.

[2] = biological target: T1, WDR5; assay: Western blot of WDR5 protein levels in MIAPACA2 cells; assay type: cell-based; parameters: After WDR5 degrader treatment, cells were collected and lysed; endogenous in cells; host or cells: MV4;11 and/or MIAPACA2; settings: 18 h; for reduction of WDR5 protein levels, concentration-dependent: MIAPACA2 cells, 0.1, 0.5, 1, 5 and 10 μM, FIG. 5
Experimental: MIAPACA2 cells were treated with DMSO or indicated compounds at 0.1 μM, 0.5 μM, 1 μM, 5 μM, and 10 μM for 18 hours.
MIAPACA2 cells were treated with DMSO or indicated compounds at 0.5 μM and 1.0 μM for 18 hours.
MIAPACA2 cells were treated with DMSO or indicated compounds at 0.1 μM and 0.5 μM for 18 hours.
MIAPACA2 cells were treated with DMSO or indicated compounds at 0.5 μM and 1.0 μM or at 1.0 μM and 10 μM for 18 hours.
(§1) MIAPACA2 and Hela cells were cultured in DMEM supplemented with 10% FBS and 1% Penicillin/Streptomycin.
WDR5 degraders were dissolved in DMSO and DMSO with no degraders was used as the control. 1×10^6 MV4;11 cells or 1×10^5 MIAPACA2 or 2×10^5 Hela cells were seeded in 2 mL medium for each well in […].
For prescreening of all the compounds, each test compound was added to the medium at indicated concentrations. After 18 h treatment, cells were collected.
After WDR5 degrader treatment, cells were collected and lysed. Total cell lysates were used for western blot. The following primary antibodies were used: WDR5 (Santa Cruz), vinculin (Cell Signaling Technology), tubulin (Cell Signaling Technology), GAPDH (Santa Cruz). Blots were imaged using fluorescence-labeled secondary antibodies on ChemiDoc™ Imaging Systems.

[3] = test system: MV4;11 cells; assay: Cell viability assay (trypan blue, live cell count) in MV4;11 cells; assay type: cell-based; settings: 0.1, 0.5, 1, 5 and 10 μM, 72 h, FIG. 4
Experimental: MV4;11 cells were treated with DMSO or the indicated compounds at indicated concentration of 0.1 μM, 0.5 μM, 1 μM, 5 μM, and 10 μM for 72 hours.
MV4;11 cells were purchased from ATCC and cultured in RPMI 1640 supplemented with 10% FBS and 1% Penicillin/Streptomycin.
0.5×10^6 MV4;11 cells were seeded in 2 mL medium for each well in 12-well plates. WDR5 degraders in DMSO were added to the medium at indicated concentrations. DMSO was used as the control. Each treatment was done in duplicate wells. After 72 h treatment, 1 part cell suspension from each treatment was mixed with 1 part 0.4% trypan blue respectively. The mixture was allowed to incubate for ˜3 min at room temperature and live cells were counted by automated cell counter.

[4] = biological target: T1, WDR5; assay: Screening of putative WDR5 degraders by Western blot in MV4;11 and/or MIAPACA2 cells; assay type: cell-based; parameters: After WDR5 degrader treatment, cells were collected and lysed; endogenous in cells; host or cells: MV4;11 and/or MIAPACA2; settings: summary of screening, FIGS. 6-10
Outline: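 MV4;11 (1×10^6/well) or MIAPACA2 (1×10^5/well) cells treated 18 h with compound at paired doses between 0.1 and 10 μM, DMSO as control. Total lysates immunoblotted for WDR5 with vinculin, tubulin or GAPDH loading controls; fluorescent secondary detection.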

[5] = test system: MIAPACA2 cells; assay: MTT cell proliferation assay in MIAPACA2 cells; assay type: cell-based; settings: 0.01, 0.03, 0.1, 0.5, 1, 5 and 10 μM, 6 days, FIG. 11
Experimental: Assessment of the cell proliferation effects of WDR5 degraders XF056-132, XF056-173 and XF067-67 in MIAPACA2 cells (FIG. 11). MIAPACA2 cells were treated with DMSO or indicated compounds at 0.01 μM, 0.03 μM, 0.1 μM, 0.5 μM, 1 μM, 5 μM, and 10 μM for 6 days. MTT assay was used for detecting cell proliferation effects.
as §1

SMILES | reduction of WDR5 protein levels, concentration-dependent [2] | effective degradation of WDR5 in MV4;11 and/or MIAPACA2 cells [4] | reduction of WDR5 protein levels in a concentration- and time-dependent manner [1] | further results
CN1CCN(c2ccc(-c3cccc(CN4CCN(CCNC(=O)CCOCCOCCNc5cccc6c5C(=O)N(C5CCC(=O)NC5=O)C6=O)CC4)c3)cc2NC(=O)c2c[nH]c(=O)cc2C(F)(F)F)CC1 (stereo not shown) [XF048-142, N-(3′-((4-(2-(3-(2-(2-((2-(2,6-dioxopiperidin-3-yl)-1,3-dioxoisoindolin-4-yl)amino)ethoxy)ethoxy)propanamido)ethyl)piperazin-1-yl)methyl)-4-(4-methylpiperazin-1-yl)-[1,1′-biphenyl]-3-yl)-6-oxo-4-(trifluoromethyl)-1,6-dihydropyridine-3-carboxamide] | – | – | effective in reducing WDR5 protein levels | –
CN1CCN(c2ccc(-c3cccc(CN4CCN(CCNC(=O)CCOCCOCCOCCOCCOCCNc5cccc6c5C(=O)N(C5CCC(=O)NC5=O)C6=O)CC4)c3)cc2NC(=O)c2c[nH]c(=O)cc2C(F)(F)F)CC1 (stereo not shown) [XF048-145, N-(3′-((4-(1-((2-(2,6-dioxopiperidin-3-yl)-1,3-dioxoisoindolin-4-yl)amino)-18-oxo-3,6,9,12,15-pentaoxa-19-azahenicosan-21-yl)piperazin-1-yl)methyl)-4-(4-methylpiperazin-1-yl)-[1,1′-biphenyl]-3-yl)-6-oxo-4-(trifluoromethyl)-1,6-dihydropyridine-3-carboxamide] | – | – | effective in reducing WDR5 protein levels | –
Cc1ncsc1-c1ccc(CNC(=O)[C@@H]2C[C@@H](O)CN2C(=O)[C@@H](NC(=O)CNC(=O)c2ccc(F)c(-c3ccc(N4C[C@@H](C)N(C)[C@@H](C)C4)c(NC(=O)c4c[nH]c(=O)cc4C(F)(F)F)c3)c2)C(C)(C)C)cc1 [XF056-132, N-(2′-fluoro-5′-((2-(((S)-1-((2S,4R)-4-hydroxy-2-((4-(4-methylthiazol-5-yl)benzyl)carbamoyl)pyrrolidin-1-yl)-3,3-dimethyl-1-oxobutan-2-yl)amino)-2-oxoethyl)carbamoyl)-4-((3R,5S)-3,4,5-trimethylpiperazin-1-yl)-[1,1′-biphenyl]-3-yl)-6-oxo-4-(trifluoromethyl)-1,6-dihydropyridine-3-carboxamide] | – | able to effectively degrade WDR5 | – | proliferation of MIAPACA2 cells [5]: significantly decreased the cell proliferation; also recorded: significantly reduced the proliferation of MIAPACA2 cells; degradation of WDR5 ([2]; MIAPACA2 cells, 0.1 μM and 0.5 μM, FIG. 8A-8C): can effectively degrade WDR5 at 0.1 μM and 0.5 μM

The next lines start with results.

reduction of WDR5 protein levels, concentration-dependent [2] | effective degradation of WDR5 in MV4;11 and/or MIAPACA2 cells [4] | SMILES | reduction of WDR5 protein levels in a concentration- and time-dependent manner [1] | further results
reduced WDR5 protein levels | able to effectively degrade WDR5 | Cc1ncsc1-c1ccc(CNC(=O)[C@@H]2C[C@@H](O)CN2C(=O)[C@@H](NC(=O)CCCCCCCCCC(=O)NCCN2CCN(Cc3cccc(-c4ccc(N5CCN(C)CC5)c(NC(=O)c5c[nH]c(=O)cc5C(F)(F)F)c4)c3)CC2)C(C)(C)C)cc1 [XF048-133, N^1-((S)-1-((2S,4R)-4-hydroxy-2-((4-(4-methylthiazol-5-yl)benzyl)carbamoyl)pyrrolidin-1-yl)-3,3-dimethyl-1-oxobutan-2-yl)-N^11-(2-(4-((4′-(4-methylpiperazin-1-yl)-3′-(6-oxo-4-(trifluoromethyl)-1,6-dihydropyridine-3-carboxamido)-[1,1′-biphenyl]-3-yl)methyl)piperazin-1-yl)ethyl)undecanediamide] | effective in reducing WDR5 protein levels | viability of MV4;11 cells [3]: reduced the viability of MV4;11 cells much more significantly than the WDR5 inhibitor OICR-9429; also recorded: reduced the viability of MV4;11 cells much more significantly than the WDR5 inhibitor OICR-9419
reduced WDR5 protein levels | able to effectively degrade WDR5 | CN1CCN(c2ccc(-c3cccc(CN4CCN(CCNC(=O)CCCCCCCNc5cccc6c5C(=O)N(C5CCC(=O)NC5=O)C6=O)CC4)c3)cc2NC(=O)c2c[nH]c(=O)cc2C(F)(F)F)CC1 (stereo not shown) [XF048-140, N-(3′-((4-(2-(8-((2-(2,6-dioxopiperidin-3-yl)-1,3-dioxoisoindolin-4-yl)amino)octanamido)ethyl)piperazin-1-yl)methyl)-4-(4-methylpiperazin-1-yl)-[1,1′-biphenyl]-3-yl)-6-oxo-4-(trifluoromethyl)-1,6-dihydropyridine-3-carboxamide] | – | –
– | able to effectively degrade WDR5 | Cc1ncsc1-c1ccc([C@H](C)NC(=O)[C@@H]2C[C@@H](O)CN2C(=O)[C@@H](NC(=O)CCCCCCCCCC(=O)NCCN2CCN(Cc3cccc(-c4ccc(N5CCN(C)CC5)c(NC(=O)c5c[nH]c(=O)cc5C(F)(F)F)c4)c3)CC2)C(C)(C)C)cc1 [XF050-166, N^1-((S)-1-((2S,4R)-4-hydroxy-2-(((S)-1-(4-(4-methylthiazol-5-yl)phenyl)ethyl)carbamoyl)pyrrolidin-1-yl)-3,3-dimethyl-1-oxobutan-2-yl)-N^11-(2-(4-((4′-(4-methylpiperazin-1-yl)-3′-(6-oxo-4-(trifluoromethyl)-1,6-dihydropyridine-3-carboxamido)-[1,1′-biphenyl]-3-yl)methyl)piperazin-1-yl)ethyl)undecanediamide] | – | WDR5 degradation effects ([2]; MIAPACA2 cells, 0.5 μM and 1.0 μM, FIG. 7): better WDR5 degradation effects than XF048-132 and XF048-140
